In patent publication US5780474A, “3-(piperid-4-yl)-1,2-benzisoxazole and 3-(piperazin-4-yl)-1,2-benzisoxazole compounds” (Adir et Compagnie, priority 1996, dated 1998):

Key:
in vivo = conditions: rat
From the text: Induction of catalepsy in the rat
Test: the animals are placed in individual cages and food is withdrawn the day before the test, but drink is taken as desired. The catalepsy test comprises placing each rear paw of the animal on the front paw of the same side and measuring the time (seconds) during which the animal remains in that "crossed paws" position (maximum 30 seconds). Each animal is subjected to three successive tests (one every two minutes), the animal being removed from its cage and placed on the work surface. The tests are carried out one hour after the subcutaneous injection or oral administration of the product or its solvent. The average value of the three tests represents the duration of the catalepsy (in seconds) for each animal. There are five or six rats per experimental group.
Statistical analysis: The effect of the product on the duration of catalepsy is evaluated by an ANOVA, followed by a Dunnett's test, with a probability of p<0.05.

[1] = tested on: conditioned avoidance response; assay: Active avoidance conditioning in the rat; type: in vivo; conditions: sc, administered subcutaneously 30 minutes before the session, read-out: ID50 conditioned avoidance responses
Method: 2. Active avoidance conditioning in the rat
This test is conventionally used to characterise anti-psychotic products, cf. P. A. Janssen, C. J. E. Niemegeers, Arzneim-Forsch., 1037-1043 (1961).
It is carried out in a cage having two compartments with an electrified floor, on rats that have been conditioned in the following manner: on presentation of a light signal, the animal must move from the compartment in which it is situated to the other compartment in order not to receive an electric shock. The response of the animal to the light signal is a conditioned Avoidance response. […] The response to the electric shock is an unconditioned Escape response.
Conventionally, anti-psychotic products inhibit the conditioned Avoidance response at doses lower than those which inhibit the non-conditioned Escape response. That differentiates them from other classes of products (in particular, barbiturates and benzodiazepines), which inhibit both responses alike. […]
Test: the animals are their own controls. […] The effects of a product on the avoidance responses are evaluated during a Test Session which takes places the day after a Control Session during the course of which the animals will have received the solvent. […]

[2] = tested on: verticalisation induced by apomorphine; assay: Verticalisation induced by apomorphine in the mouse; type: in vivo; conditions: sc, product s.c. 30 min before apomorphine 0.75 mg/kg s.c., read-out: ID50 verticalisation
Method: 1. Verticalisation induced by apomorphine (0.75 mg/kg, s.c.) in the mouse
This test, described by Protais et al., Psychopharmacology, 50, 1-6 (1976), allows the evaluation of the dopaminergic antagonist activity of possible anti-psychotic products. A mouse to which apomorphine has been administered and which has been placed in a cage with vertical bars will, most of the time, remain immobile at the top of the cage, clinging by its four paws to the bars. This verticalisation behaviour is blocked if a dopaminergic antagonist product has been administered before the apomorphine.
Test immediately after subcutaneous (s.c.) administration of the product or solvent (control group), the mouse is placed in a cylindrical cage (14 cm diam.×14 cm height) with vertical bars. Thirty minutes later, the animal receives the dose of apomorphine (0.75 mg/kg, s.c.). […]
Statistical analysis: The effect of the product on verticalisation is evaluated by comparing the scores obtained for each group that has received a dose of product with those obtained for the control group (solvent) using a Mann and Whitney U test with a probability of p<0.05. […]

[3] = tested on: aggressiveness in isolated mice; assay: Test of aggressiveness in isolated mice; type: in vivo; conditions: Mus musculus, sc, administered subcutaneously 30 minutes before test, read-out: ID50 number or duration of the attacks
From the text: 3. Test of aggressiveness in isolated mice
This test allows the evaluation of the intraspecies anti-aggressive activity of a product in mice that have been kept in isolation for several months.
Animals: The test uses male CD mice (Charles River) weighing from 22 to 25 g on arrival at the animal house. Immediately on arrival the animals are isolated in individual cages made of opaque black polycarbonate (23×14×13 cm) having a grill lid, and are housed for a prolonged period (approximately 6 months) in the experimentation room.
Selection of pairs of mice: The selection of pairs of aggressive mice that will be used on a long-term basis in the study starts after the animals have been isolated for one month. Once or twice per week a mouse from another cage (intruder) is placed in the cage of a (resident) mouse and the two animals are observed to see if they attack one another (sniffing, pursuing, nipping, biting) during that trial. At the end of the trial (maximum duration of 10 minutes), each mouse is isolated again in its own cage. If attacks have occurred, the same pair will be tested again in the next trial; if there have been no attacks, each mouse of that pair will be placed in the presence of a different mouse in the following trial. […]

| ED50 at 1 h (in vivo; sc) | ED50 at 1 h (in vivo) | SMILES | ED50 [1] | ED50 [2] | ED50 [3] |
| --- | --- | --- | --- | --- | --- |
| 0.15 mg/kg |  | O=C(CCCN1CCC(O)(c2ccc(Cl)cc2)CC1)c1ccc(F)cc1 [haloperidol, reference compound] |  |  |  |
|  | 34 mg/kg | O=C1N(CCN2CCC(c3noc4cc(F)ccc34)CC2)CCN1c1ccccc1 [Example 5, 1-{2-[4-(6-Fluoro-1,2-benzisoxazol-3-yl)piperid-1-yl]ethyl}-3-phenylimidazolidin-2-one] | 0.88 mg/kg | 0.22 mg/kg | 0.18 mg/kg |
